Test results taken from US20160227783A1, “AGROCHEMICAL FORMULATION AID FOR MICRONUTRIENT UPTAKE IN PLANTS, PLANT HEALTH BENEFITS AND HERBICIDE PERFORMANCE” (Adjuvants Plus USA, INC., priority 2015, published 2016).
Marks after values point to notes of the source that are not given here.

Assays:
Velvetleaf = experiment: Influence of water conditioners on the control of velvetleaf 21 DAT in the greenhouse; conditions: velvetleaf 21 DAT greenhouse
[1] = system: glyphosate resistant canola Nexera 1012; experiment: Canola field trial: flowering, yield components, oil, protein and seed yield; assay type: in vivo
Procedure: (§1) A trial was conducted to evaluate the effect of early and or late application of glyphosate with Composition 2 on yield of glyphosate resistant canola. The RR canola was Nexera 1012. The trial was conducted on a silt loam soil with 40-47% sand, 30-50% silt and 10-23% clay, 1.4-2.9% organic matter, and pH of 6.4-8.2. The plot was planted to field pea and then hard red spring wheat the previous two years. Treatments were arranged in a randomized complete block design with four (4) replications each while the control (no-Composition 2) was replicated only twice. Plots were seeded with Nexera 1012 at seeding depth of about 1.2 to 2.5 cm, 10° C. soil temperature and plant population of approximately 110-115 seeds m2. Plants were fertilized with 87-31-9-22 N—P—K—S pounds per acre via spreading urea and potash and putting phosphorus (Alpine and 11-52-0) and sulfur through the drill. In-crop application of glyphosate at a rate of 0.45 kg ha-1 (180 g/ac) with Composition 2 at 1 L/ac was applied at 3-4 leaf stage (Early application), 6 leaf stage (Normal application), after 10 leaf stage (late) and at both 3-4 leaf and after 10 leaf stages (Early/late application). The control treatments were sprayed with glyphosate alone. Each treatment was replicated four (4) times except the control treatment which had only two (2) replications.
(§2) Plant leaf tissues were collected at one and two weeks after spraying within each treatment to determine the mineral compositions. At physiological maturity with 70% of the seeds on the main raceme turned black, plants were swathed and allowed to cure for three weeks before being combined. Prior to swathing, fifty randomly selected plants were used for seed yield and yield components analysis. Data on number of fruits/plant, percent seed oil and seed protein were collected and analysed. An area of […] of swath for each plot was combined and used for yield (bu/ac) determination. Seed yield (bu/ac) from combine was adjusted to 8% seed moisture content. Variables response to treatments were compared by analysis of variance (ANOVA) by using SPSS statistical software and mean values were subjected to ANOVA and significant means at F<0.05 were separated by the Duncan's multiple range test.

[2] = system: glyphosate resistant canola Nexera 1012; experiment: Canola leaf tissue mineral composition after glyphosate with or without Composition 2; assay type: in vivo; conditions: for % K / % N / % P / % S / Fe ppm / Mn ppm / Zn ppm: Control: glyphosate 0.45 kg/ha alone
Procedure: as §1, §2

[3] = canola, Control: glyphosate 0.45 kg/ha alone
[4] = canola leaf tissue one week after application, Control: glyphosate alone
[5] = canola leaf tissue one week after spraying
[6] = canola leaf tissue two weeks after spraying

In the case of `CNC.O=C(O)COc1ccc(Cl)cc1Cl` [2,4-D DMA, 2,4-D Dimethylamine], the “2,4-D DMA (% control)” value (Velvetleaf; 2,4-D DMA 0.1 kg a.e./ha, herbicide alone) is reported as 29 g %.
In the case of `COc1c(Cl)ccc(Cl)c1C(=O)O.NCCOCCO` [Dicamba DGA, dicamba diglycolamine], the “Dicamba DGA (% control)” value (Velvetleaf; Dicamba DGA (Clarity) 0.034 kg a.e/ha, herbicide alone) is reported as 36 g %.
In the case of `O=C(O)CNCP(=O)(O)O` [glyphosate], the oil content ([1]; canola seed, Control: glyphosate 0.45 kg/ha alone) is reported as 37.7%, the percent protein ([1]; canola seed, Control: glyphosate alone) is reported as “lowest value” and the “Number of fruits per plant” value [1, 3] is reported as 78.5. For the same compound, the Seed yield [1, 3] was 40.9 bu/ac, the thousand seed weight [1, 3] was 3.1 g and the Percent green counts ([1]; control (no-Composition 2) compared to Early, Normal and Early/Late treatments) was “higher”. For the same compound, the Flowering ([1]; no-Composition 2 (glyphosate alone) plots compared to Composition 2 treated plots) was “delayed”, the Fe reduction [2, 4] was 22.7% and the “Mn concentration drop from the initial concentration” value [2, 4] was 13.4%. The “Zn concentration drop from the initial concentration” value [2, 4] was 14.5%, the “% K” value [2, 5] was 4.1^a % and the “% N” value [2, 5] was 3.7^a %. For the same compound, the “% P” value [2, 5] was 0.3^a %, the “% S” value [2, 5] was 1.0^a % and the Fe ppm [2, 5] was 85.1^a ppm. For the same compound, the Mn ppm [2, 5] was 76.4^a ppm, the Zn ppm [2, 5] was 20.7^a ppm and the “% K” value [2, 6] was 4.3^a %. For the same compound, the “% N” value [2, 6] was 4.6^a %, the “% P” value [2, 6] was 0.5^a % and the “% S” value [2, 6] was 1.3^a %. The Fe ppm [2, 6] was 105^a ppm, the Mn ppm [2, 6] was 83.2^a ppm and the Zn ppm [2, 6] was 22.6^a ppm.
`N.N.O=S(=O)(O)O` [AMS, Diammonium sulfate] was tested, and the “2,4-D Acid (% control)” value (Velvetleaf; 2,4-D Acid (Rugged) 0.1 kg a.e/ha +2% AMS) was 73 ab % and the “2,4-D DMA (% control)” value (Velvetleaf; 2,4-D DMA 0.1 kg a.e./ha +2% AMS) was 58 def %.
With `O=C(O)COc1ccc(Cl)cc1Cl` [2,4-D Acid, 2,4-D] the “2,4-D Acid (% control)” value (Velvetleaf; 2,4-D Acid (Rugged) 0.1 kg a.e/ha, herbicide alone) was 31 g %.
